Data reported in ChEMBL document CHEMBL4507263, “Data for DCP probe BAY-474” (2021).

Legend:
[1] = target: Insulin receptor-related protein (Homo sapiens) (UniProt P14616); test: IRR (h) Millipore kinase activity assay; details: Compound concentration 1.0 uM
[2] = target: Sodium-dependent serotonin transporter (Homo sapiens) (UniProt P31645); details: Compound concentration 10.0 uM
[3] = target: T1, 5-hydroxytryptamine receptor 1A (Homo sapiens) (UniProt P08908); details: Compound concentration 10.0 uM
T1 sequence (whole entry): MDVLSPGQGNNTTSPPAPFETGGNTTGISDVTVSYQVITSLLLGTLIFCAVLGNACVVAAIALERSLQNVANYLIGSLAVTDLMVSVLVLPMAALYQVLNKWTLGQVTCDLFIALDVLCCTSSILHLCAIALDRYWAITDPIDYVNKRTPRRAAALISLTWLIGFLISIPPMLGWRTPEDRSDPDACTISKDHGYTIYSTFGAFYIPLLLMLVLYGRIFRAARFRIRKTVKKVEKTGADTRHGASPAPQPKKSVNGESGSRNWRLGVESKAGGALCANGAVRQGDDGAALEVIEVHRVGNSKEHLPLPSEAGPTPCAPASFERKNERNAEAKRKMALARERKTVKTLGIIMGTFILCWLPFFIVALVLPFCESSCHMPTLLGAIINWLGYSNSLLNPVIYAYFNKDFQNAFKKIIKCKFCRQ

[4] = target: Beta-1 adrenergic receptor (Homo sapiens) (UniProt P08588); details: Compound concentration 10.0 uM
[5] = target: RAF proto-oncogene serine/threonine-protein kinase (Homo sapiens) (UniProt P04049); test: c-RAF (h) Millipore kinase activity assay; details: Compound concentration 1.0 uM
Sequence of RAF proto-oncogene serine/threonine-protein kinase (Homo sapiens) (P04049 whole entry): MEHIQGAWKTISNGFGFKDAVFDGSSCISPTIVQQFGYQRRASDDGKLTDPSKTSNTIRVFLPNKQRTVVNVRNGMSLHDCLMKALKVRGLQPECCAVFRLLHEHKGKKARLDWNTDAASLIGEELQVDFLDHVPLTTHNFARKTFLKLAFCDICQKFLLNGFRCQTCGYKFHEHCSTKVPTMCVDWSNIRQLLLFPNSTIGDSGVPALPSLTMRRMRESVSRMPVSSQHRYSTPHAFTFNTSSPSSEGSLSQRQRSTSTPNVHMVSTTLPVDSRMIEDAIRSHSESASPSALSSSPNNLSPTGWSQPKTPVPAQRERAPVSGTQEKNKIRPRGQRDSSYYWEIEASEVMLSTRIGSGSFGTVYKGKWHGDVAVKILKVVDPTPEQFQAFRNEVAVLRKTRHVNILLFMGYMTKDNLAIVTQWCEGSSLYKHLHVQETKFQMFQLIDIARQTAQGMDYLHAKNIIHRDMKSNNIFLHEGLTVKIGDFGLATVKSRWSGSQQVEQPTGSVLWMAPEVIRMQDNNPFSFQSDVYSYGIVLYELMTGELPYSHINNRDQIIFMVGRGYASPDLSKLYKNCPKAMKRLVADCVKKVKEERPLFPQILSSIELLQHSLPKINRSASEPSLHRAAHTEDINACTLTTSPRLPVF

[6] = target: Dual specificity protein kinase CLK3 (Homo sapiens) (UniProt P49761); test: CLK3 (h) Millipore kinase activity assay; details: Compound concentration 1.0 uM
[7] = target: Serine/threonine-protein kinase Nek2 (Homo sapiens) (UniProt P51955); test: NEK2 (h) Millipore kinase activity assay; details: Compound concentration 1.0 uM
[8] = target: Serine/threonine-protein kinase ULK1 (Homo sapiens) (UniProt O75385); details: Compound concentration 1000.0 nM
[9] = target: Serine/threonine-protein kinase PAK 3 (Homo sapiens) (UniProt O75914); details: Compound concentration 1000.0 nM
Sequence of Serine/threonine-protein kinase PAK 3 (Homo sapiens) (O75914 whole entry, looked up): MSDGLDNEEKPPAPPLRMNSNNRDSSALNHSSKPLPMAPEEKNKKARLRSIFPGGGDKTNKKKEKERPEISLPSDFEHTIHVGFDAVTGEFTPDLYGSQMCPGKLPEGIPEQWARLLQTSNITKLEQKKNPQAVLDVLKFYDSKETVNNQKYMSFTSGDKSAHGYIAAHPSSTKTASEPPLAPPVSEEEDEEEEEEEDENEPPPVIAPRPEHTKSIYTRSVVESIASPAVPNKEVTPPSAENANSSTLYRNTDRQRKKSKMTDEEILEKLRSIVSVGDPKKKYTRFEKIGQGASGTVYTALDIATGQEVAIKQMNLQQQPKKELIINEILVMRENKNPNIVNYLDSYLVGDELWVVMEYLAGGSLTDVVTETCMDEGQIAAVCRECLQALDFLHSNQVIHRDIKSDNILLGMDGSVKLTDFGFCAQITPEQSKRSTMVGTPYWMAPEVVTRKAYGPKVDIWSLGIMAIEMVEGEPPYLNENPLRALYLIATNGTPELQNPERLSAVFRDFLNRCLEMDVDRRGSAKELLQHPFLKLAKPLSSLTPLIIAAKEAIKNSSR

[10] = test system: Tyrosine-protein kinase ABL1 (Homo sapiens), P00519 [F317L]; details: Compound concentration 1000.0 nM
[11] = target: 1-phosphatidylinositol 3-phosphate 5-kinase (Homo sapiens) (UniProt Q9Y2I7); details: Compound concentration 1000.0 nM
[12] = GPCRScan assay: inhibition of GABA/PBR; design: species or system Rattus norvegicus; radioligand conc. used [nm] 0.3 – 2.0, parental cells brain tissue
[13] = test system: Epidermal growth factor receptor (Homo sapiens), P00533 [UNDEFINED MUTATION]; details: Compound concentration 1000.0 nM
[14] = target: Serine/threonine-protein kinase tousled-like 2 (Homo sapiens) (UniProt Q86UE8); details: Compound concentration 1000.0 nM
[15] = target: Serine/threonine-protein kinase N1 (Homo sapiens) (UniProt Q16512); details: Compound concentration 1000.0 nM
[16] = target: Cyclin-dependent kinase-like 5 (Homo sapiens) (UniProt O76039); details: Compound concentration 1000.0 nM
[17] = target: Serine/threonine-protein kinase DCLK1 (Homo sapiens) (UniProt O15075); details: Compound concentration 1000.0 nM
Sequence of Serine/threonine-protein kinase DCLK1 (Homo sapiens) (O15075 whole entry): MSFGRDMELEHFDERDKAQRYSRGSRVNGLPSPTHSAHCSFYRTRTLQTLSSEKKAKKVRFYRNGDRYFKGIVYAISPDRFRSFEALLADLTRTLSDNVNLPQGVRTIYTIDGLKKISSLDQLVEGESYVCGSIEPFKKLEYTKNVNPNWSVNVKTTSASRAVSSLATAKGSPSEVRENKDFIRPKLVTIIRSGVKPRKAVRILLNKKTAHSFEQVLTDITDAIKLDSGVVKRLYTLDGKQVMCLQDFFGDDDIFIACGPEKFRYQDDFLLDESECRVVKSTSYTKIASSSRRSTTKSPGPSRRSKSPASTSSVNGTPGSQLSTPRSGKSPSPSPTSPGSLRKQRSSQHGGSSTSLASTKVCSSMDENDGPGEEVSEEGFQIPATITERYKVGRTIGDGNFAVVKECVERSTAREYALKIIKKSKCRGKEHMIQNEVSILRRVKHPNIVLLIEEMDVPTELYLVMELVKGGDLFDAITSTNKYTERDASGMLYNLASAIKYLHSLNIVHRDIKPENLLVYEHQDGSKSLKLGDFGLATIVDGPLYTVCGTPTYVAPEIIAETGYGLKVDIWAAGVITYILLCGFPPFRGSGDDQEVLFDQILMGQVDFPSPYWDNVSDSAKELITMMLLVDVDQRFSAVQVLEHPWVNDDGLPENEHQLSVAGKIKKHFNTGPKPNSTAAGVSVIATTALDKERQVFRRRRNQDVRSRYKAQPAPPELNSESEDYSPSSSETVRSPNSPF

[18] = target: Casein kinase II subunit alpha' (Homo sapiens) (UniProt P19784); details: Compound concentration 1000.0 nM
[19] = target: Bone morphogenetic protein receptor type-1B (Homo sapiens) (UniProt O00238); details: Compound concentration 1000.0 nM
[20] = test system: Tyrosine-protein kinase ABL1 (Homo sapiens), P00519 [T315I]; details: Compound concentration 1000.0 nM
[21] = target: Serine/threonine-protein kinase ICK (Homo sapiens) (UniProt Q9UPZ9); details: Compound concentration 1000.0 nM
[22] = target: SRSF protein kinase 3 (Homo sapiens) (UniProt Q9UPE1); details: Compound concentration 1000.0 nM
Sequence of SRSF protein kinase 3 (Homo sapiens) (Q9UPE1 whole entry): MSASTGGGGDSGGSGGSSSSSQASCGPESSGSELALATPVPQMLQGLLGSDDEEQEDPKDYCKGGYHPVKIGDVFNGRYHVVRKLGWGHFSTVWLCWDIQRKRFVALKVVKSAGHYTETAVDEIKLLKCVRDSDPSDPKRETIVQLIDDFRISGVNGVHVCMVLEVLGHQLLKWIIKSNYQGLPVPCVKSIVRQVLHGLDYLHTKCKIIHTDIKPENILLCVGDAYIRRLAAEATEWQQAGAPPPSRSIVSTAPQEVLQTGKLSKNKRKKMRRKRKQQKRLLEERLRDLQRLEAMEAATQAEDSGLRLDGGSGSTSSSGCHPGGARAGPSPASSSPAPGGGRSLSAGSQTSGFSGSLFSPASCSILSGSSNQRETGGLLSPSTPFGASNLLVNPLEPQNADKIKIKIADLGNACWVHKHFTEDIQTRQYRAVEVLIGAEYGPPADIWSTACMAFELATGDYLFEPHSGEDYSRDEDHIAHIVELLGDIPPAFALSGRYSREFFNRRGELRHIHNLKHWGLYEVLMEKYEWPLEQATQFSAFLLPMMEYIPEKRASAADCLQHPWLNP

[23] = target: Tyrosine-protein kinase Fyn (Homo sapiens) (UniProt P06241); details: Compound concentration 1000.0 nM
[24] = target: Ribosomal protein S6 kinase alpha-2 (Homo sapiens) (UniProt Q15349); details: Compound concentration 1000.0 nM
[25] = target: RAF proto-oncogene serine/threonine-protein kinase (Homo sapiens) (UniProt P04049); details: Compound concentration 1000.0 nM
[26] = test system: Fibroblast growth factor receptor 3 (Homo sapiens), P22607 [G697C]; details: Compound concentration 1000.0 nM
Sequence of Fibroblast growth factor receptor 3 (Homo sapiens), P22607 [G697C] (P22607 whole entry G697C): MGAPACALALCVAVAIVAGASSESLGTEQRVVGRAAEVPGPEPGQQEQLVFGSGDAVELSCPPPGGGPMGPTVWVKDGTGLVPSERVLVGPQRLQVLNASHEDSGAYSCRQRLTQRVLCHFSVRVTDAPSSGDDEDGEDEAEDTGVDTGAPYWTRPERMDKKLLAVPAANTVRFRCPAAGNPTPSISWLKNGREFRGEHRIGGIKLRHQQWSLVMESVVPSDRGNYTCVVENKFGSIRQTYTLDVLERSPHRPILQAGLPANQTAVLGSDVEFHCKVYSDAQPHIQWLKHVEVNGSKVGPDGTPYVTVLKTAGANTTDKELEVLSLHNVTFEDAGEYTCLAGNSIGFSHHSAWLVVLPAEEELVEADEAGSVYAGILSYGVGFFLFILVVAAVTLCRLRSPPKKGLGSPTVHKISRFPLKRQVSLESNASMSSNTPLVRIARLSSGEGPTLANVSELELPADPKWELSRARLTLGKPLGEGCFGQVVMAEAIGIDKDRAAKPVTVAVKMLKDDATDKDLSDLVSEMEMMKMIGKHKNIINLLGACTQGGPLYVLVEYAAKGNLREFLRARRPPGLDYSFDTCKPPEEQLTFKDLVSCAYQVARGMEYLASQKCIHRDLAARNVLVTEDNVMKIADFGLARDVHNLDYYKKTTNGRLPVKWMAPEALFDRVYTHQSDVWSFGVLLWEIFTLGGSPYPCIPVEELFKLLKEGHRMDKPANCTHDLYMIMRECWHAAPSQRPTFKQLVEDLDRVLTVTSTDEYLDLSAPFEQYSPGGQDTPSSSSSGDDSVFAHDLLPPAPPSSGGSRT

[27] = target: Serine/threonine-protein kinase 36 (Homo sapiens) (UniProt Q9NRP7); details: Compound concentration 1000.0 nM
Sequence of Serine/threonine-protein kinase 36 (Homo sapiens) (Q9NRP7 whole entry): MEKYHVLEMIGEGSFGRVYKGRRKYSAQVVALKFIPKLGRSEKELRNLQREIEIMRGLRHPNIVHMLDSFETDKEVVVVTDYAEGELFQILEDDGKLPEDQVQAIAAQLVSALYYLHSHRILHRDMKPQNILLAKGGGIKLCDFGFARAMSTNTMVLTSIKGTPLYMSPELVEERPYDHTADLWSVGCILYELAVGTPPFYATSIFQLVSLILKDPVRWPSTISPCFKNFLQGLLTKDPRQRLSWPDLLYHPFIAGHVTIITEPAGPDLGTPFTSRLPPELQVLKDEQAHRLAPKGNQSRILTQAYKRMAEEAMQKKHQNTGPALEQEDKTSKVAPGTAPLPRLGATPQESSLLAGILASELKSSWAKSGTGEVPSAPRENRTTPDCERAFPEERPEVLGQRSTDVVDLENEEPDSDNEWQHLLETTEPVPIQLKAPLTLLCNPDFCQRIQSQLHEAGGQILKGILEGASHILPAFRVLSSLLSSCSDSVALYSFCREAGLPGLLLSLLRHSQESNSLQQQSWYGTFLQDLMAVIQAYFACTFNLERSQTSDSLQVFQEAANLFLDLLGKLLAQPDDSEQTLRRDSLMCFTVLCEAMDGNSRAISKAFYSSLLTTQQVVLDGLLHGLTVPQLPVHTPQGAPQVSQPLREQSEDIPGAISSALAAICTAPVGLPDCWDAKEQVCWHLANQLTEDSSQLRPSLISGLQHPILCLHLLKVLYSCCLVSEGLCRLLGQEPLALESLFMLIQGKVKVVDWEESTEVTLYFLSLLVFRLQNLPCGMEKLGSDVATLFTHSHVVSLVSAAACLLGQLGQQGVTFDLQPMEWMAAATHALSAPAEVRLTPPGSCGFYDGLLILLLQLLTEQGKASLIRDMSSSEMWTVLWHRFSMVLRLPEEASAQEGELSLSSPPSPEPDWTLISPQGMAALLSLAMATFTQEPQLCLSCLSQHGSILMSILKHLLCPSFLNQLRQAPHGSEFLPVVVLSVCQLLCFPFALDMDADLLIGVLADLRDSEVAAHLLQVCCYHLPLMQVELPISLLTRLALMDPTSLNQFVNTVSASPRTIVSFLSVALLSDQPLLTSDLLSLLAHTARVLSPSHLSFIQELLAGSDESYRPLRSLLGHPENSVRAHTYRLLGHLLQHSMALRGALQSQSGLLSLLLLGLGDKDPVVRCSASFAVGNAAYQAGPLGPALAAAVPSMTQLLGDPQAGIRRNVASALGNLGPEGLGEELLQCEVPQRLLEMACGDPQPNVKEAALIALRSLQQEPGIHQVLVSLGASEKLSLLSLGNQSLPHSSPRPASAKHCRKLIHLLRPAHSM

[28] = target: Serine/threonine-protein kinase 32B (Homo sapiens) (UniProt Q9NY57); details: Compound concentration 1000.0 nM
Sequence of Serine/threonine-protein kinase 32B (Homo sapiens) (Q9NY57 whole entry): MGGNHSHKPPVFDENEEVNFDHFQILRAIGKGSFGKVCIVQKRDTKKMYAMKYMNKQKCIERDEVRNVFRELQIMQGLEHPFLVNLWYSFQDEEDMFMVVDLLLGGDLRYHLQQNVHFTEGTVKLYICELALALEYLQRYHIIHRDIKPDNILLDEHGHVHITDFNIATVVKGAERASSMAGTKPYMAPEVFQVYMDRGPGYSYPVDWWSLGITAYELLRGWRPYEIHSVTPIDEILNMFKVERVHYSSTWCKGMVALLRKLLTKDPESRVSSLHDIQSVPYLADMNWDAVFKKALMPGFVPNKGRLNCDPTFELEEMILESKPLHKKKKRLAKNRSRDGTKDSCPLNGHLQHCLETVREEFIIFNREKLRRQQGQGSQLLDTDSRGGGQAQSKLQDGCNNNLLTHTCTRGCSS

[29] = target: Sodium-dependent noradrenaline transporter (Homo sapiens) (UniProt P23975); details: Compound concentration 10.0 uM
[30] = target: Bone morphogenetic protein receptor type-1A (Homo sapiens) (UniProt P36894); details: Compound concentration 1000.0 nM
[31] = target: Tyrosine-protein kinase FRK (Homo sapiens) (UniProt P42685); details: Compound concentration 1000.0 nM
[32] = test system: Epidermal growth factor receptor (Homo sapiens), P00533 [G719C]; details: Compound concentration 1000.0 nM
[33] = target: Serine/threonine-protein kinase 32A (Homo sapiens) (UniProt Q8WU08); details: Compound concentration 1000.0 nM
[34] = target: Insulin receptor (Homo sapiens) (UniProt P06213); details: Compound concentration 1000.0 nM
[35] = target: Serine/threonine-protein kinase Sgk2 (Homo sapiens) (UniProt Q9HBY8); details: Compound concentration 1000.0 nM
[36] = target: SNF-related serine/threonine-protein kinase (Homo sapiens) (UniProt Q9NRH2); details: Compound concentration 1000.0 nM
[37] = target: Cyclin-dependent kinase 14 (Homo sapiens) (UniProt O94921); details: Compound concentration 1000.0 nM
[38] = target: Ribosomal protein S6 kinase alpha-3 (Homo sapiens, UniProt P51812); details: Compound concentration 1000.0 nM
[39] = target: Serine/threonine-protein kinase BRSK1 (Homo sapiens) (UniProt Q8TDC3); details: Compound concentration 1000.0 nM
[40] = target: Serine/threonine-protein kinase VRK2 (Homo sapiens) (UniProt Q86Y07); details: Compound concentration 1000.0 nM

CC1=C(C#N)C(c2ccc3[nH]nc(C)c3c2)C(C#N)=C(C)N1 [BAY-474]
inhibition [1]: 2%
inhibition [2]: -3.41%
inhibition [3]: -9%
inhibition [4]: 0%
inhibition [5]: 1%
inhibition [6]: -1%
inhibition [7]: -5%

CC1=C(C#N)[C@@H](c2ccc3[nH]nc(C)c3c2)C(C#N)=C(c2ccc(Cl)cc2)N1 [BAY-827]
residual activity [8]: 100%
residual activity [9]: 100%
residual activity [10]: 100%
residual activity [11]: 100%
Ki [12]: 2400 nM
pKi [12]: 5.67
residual activity [13]: 80.4%
residual activity [14]: 100%
residual activity [15]: 91.4%
residual activity [16]: 88.5%
residual activity [17]: 79.2%
residual activity [18]: 100%
residual activity [19]: 100%
residual activity [20]: 88.1%
residual activity [21]: 76.2%
residual activity [22]: 100%
residual activity [23]: 69%
residual activity [24]: 100%
residual activity [25]: 100%
residual activity [26]: 100%
residual activity [27]: 95.9%
residual activity [28]: 100%
inhibition [29]: 8.56%
residual activity [30]: 98.6%
residual activity [31]: 100%
residual activity [32]: 100%
residual activity [33]: 100%
residual activity [34]: 100%
residual activity [35]: 100%
residual activity [36]: 100%
residual activity [37]: 94.4%
residual activity [38]: 78.1%
residual activity [39]: 100%
residual activity [40]: 100%
